Values quoted from earlier work, collected in patent publication US11103490B2, “Clevidipine emulsion formulations containing antimicrobial agents” (Chiesi Farmaceutici, S.P.A., priority 2010, dated 2021).

Columns and labels:
[1] = in vivo

initial phase half-life [1]: about one
terminal half-life [1]: approximately 15 minutes
solubility in lipids: moderate to high
solubility in water: low
Structure (SMILES): CCCC(=O)OCOC(=O)C1=C(C)NC(C)=C(C(=O)OC)C1c1cccc(Cl)c1Cl (stereo not shown) [Clevidipine, clevidipine]
